Numbers after ± are expanded uncertainties.
Assays:
[1] = Liquid; for mass density: 101.33 kPa
[2] = refractive index (Na D-line) (dimensionless); conditions: 101.33 kPa, Liquid, Standard Abbe refractometry

| SMILES | mass density ([1]; 298.15 K) [kg/m3] | refractive index ([2]; 298.15 K) | further results |
| --- | --- | --- | --- |
| CCCCCCCC [octane] | 698.6 ± 1 |  | vapor or sublimation pressure ([1]; 391.15 K): 95.1 ± 5 kPa |
| CN(C)C=O [dimethylformamide] | 943.9 ± 1.4 | 1.4282 ± 0.0007 | vapor or sublimation pressure ([1]; 420.85 K): 95.1 ± 5 kPa; vapor or sublimation pressure ([1]; 420.95 K): 95.1 ± 5 kPa |
| CCC(C)=O [butanone] | 799.8 ± 1.2 | 1.3769 ± 0.0007 | vapor or sublimation pressure ([1]; 350.95 K): 95.1 ± 5 kPa |
| COc1ccccc1 [anisole] | 989.3 ± 1.5 | 1.5142 ± 0.0007 | vapor or sublimation pressure ([1]; 424.45 K): 95.1 ± 5 kPa |
| N#Cc1cnccn1 [2-cyanopyrazine] |  |  | mass density ([1]; 293.15 K): 1174 ± 1.8 kg/m3; vapor or sublimation pressure ([1]; 476.15 K): 95.1 ± 5 kPa; refractive index ([2]; 293.15 K): 1.534 ± 0.0007 |
| CC(C)OC(C)C [diisopropyl ether] | 718.5 ± 1 | 1.3654 ± 0.0007 | vapor or sublimation pressure ([1]; 339.65 K): 95.1 ± 5 kPa |
| CCCCCCCCCC [decane] | 726.4 ± 1 | 1.4097 ± 0.0007 | vapor or sublimation pressure ([1]; 444.95 K): 95.1 ± 5 kPa |
